Experimental data as given in US5726195A, “Aminoacyl adenylate mimics as novel antimicrobial and antiparasitic agents” (Cubist Pharmaceuticals, Inc., priority 1996, dated 1998).
In brackets after ≈: the same amount, converted by molar mass.

Assays:
B. subtilis ATCC 6633 = experiment: Whole cell antimicrobial screen, MIC; format: cell-based; conditions: Bacillus subtilis, ATCC6633
Outline: (§1)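 MIC = lowest compound concentration inhibiting growth, judged from optical density after overnight incubation at 30° C.-37° C. Inoculum was 5×10^4 cells per well in media such as Mueller-Hinton Broth, with twofold dilutions spanning 0.1 μg/mL-500 μg/mL.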

C. albicans ATCC 10231 = experiment: Whole cell antimicrobial screen, MIC; format: cell-based; conditions: Candida albicans, ATCC10231
Outline: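 Broth microdilution per NCCLS M7-A3: 2-fold compound dilutions (0.1 μg/mL-500 μg/mL final, DMSO ≤1%) incubated with 5×10^4 cells in appropriate medium overnight at 30° C.-37° C. Growth read as optical density; MIC taken as the lowest concentration inhibiting growth.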

E. faecalis ATCC 33011 = experiment: Whole cell antimicrobial screen, MIC; format: cell-based; conditions: Enterococcus faecalis, ATCC33011
Outline: as §1

E. faecium ATCC 6569 = experiment: Whole cell antimicrobial screen, MIC; format: cell-based; conditions: Enterococcus faecium, ATCC6569
Outline: as §1

H. influenza ATCC 49247 = experiment: Whole cell antimicrobial screen, MIC; format: cell-based
Outline: as §1

K. pneumonia ATCC 4352 = experiment: Whole cell antimicrobial screen, MIC; format: cell-based; conditions: Klebsiella pneumoniae, ATCC4352
Outline: as §1

[1] = system: M. catarrhalis ATCC 25240; experiment: Whole cell antimicrobial screen, MIC; format: cell-based; conditions: Moraxella catarrhalis, ATCC25240
Outline: as §1

S. aureus ATCC 14154 = experiment: Whole cell antimicrobial screen, MIC; format: cell-based; conditions: Staphylococcus aureus, ATCC14154
Outline: as §1

S. aureus ATCC 6538P = experiment: Whole cell antimicrobial screen, MIC; format: cell-based; conditions: Staphylococcus aureus, ATCC6538P
Outline: as §1

[2] = system: S. epidermidis ATCC 33501; experiment: Whole cell antimicrobial screen, MIC; format: cell-based; conditions: Staphylococcus epidermidis, ATCC33501
Outline: as §1

S. pneumonia ATCC 49619 = experiment: Whole cell antimicrobial screen, MIC; format: cell-based
Outline: as §1

S. pyogenes ATCC 8668 = experiment: Whole cell antimicrobial screen, MIC; format: cell-based; conditions: Streptococcus pyogenes, ATCC8668
Outline: as §1

[3] = system: S. saprophyticus ATCC 35552; experiment: Whole cell antimicrobial screen, MIC; format: cell-based; conditions: Staphylococcus saprophyticus, ATCC35552
Outline: as §1

[4] = system: Streptococcus pyogenes (ATCC 8668); experiment: Mouse protection test against wild type Streptococcus pyogenes; format: in vivo, Streptococcus pyogenes; female CD-1 mice; conditions: for Protective % / Number of Alive: repeated at 4 hours, 7 days; for Number of Alive: of 5 mice
Excerpt: The mouse protection test is an industry standard for measuring the efficacy of a test compound in vivo [for examples of this model see J. J. Clement, et al., Antimicrobial Agents and Chemotherapy, 38 (5), 1071-1078, (1994)]. As exemplified below, this test was used to show the in vivo efficacy of the compounds of the present invention against bacteria.
The in vivo antibacterial activity of compound X was established by infecting female CD-1 mice (Charles River Lab, Massachusettes) weighing 20-24 g intraperitoneally with Streptococcus pyogenes inoculum. The inoculum was prepared from Streptococcus pyogenes (ATCC 8668) which was cultured in brain heart infusion broth (Baltimore Biological Laboratories,Maryland) at 37° C. for 18 hr, and then 0.1 ml of the overnight culture was diluted with the medium to 5.0 ml for reading its OD at 600 nm (0.017). The turbidity of a 0.5 McFarland standard is equivalent to OD600 0.1, or 10^8 cfu/ml. Then, 8×10^5 cfu of the bacteria (940 μl of 1:1000 overnight culture) was added to 20 ml of phosphate buffered saline (Sigma P-0261 ) containing 5% hog gastric mucin (Sigma M-2378). All animals were injected with 0.5 ml of the inoculum, equivalent to 2×10^4 cfu/mouse which is the dose causing ~100% death of the animals without treatment.
Compound X (50 mg) was dissolved in 5.0 ml of 0.05M Tris.HCl (pH 8.8) to give a solution of 10 mg/ml. This solution was serially diluted with 0.05 M Tris.HCl by 5-fold (1.0 ml to 5.0 ml) to give 2, 0.4 and 0.08 mg/ml solutions. The known antibiotic erythromycin (Sigma E-6376, in phosphate buffered saline, 1 mg/ml, pH 7.0) was used as a positive control. All the solutions were filtered with 0.2 μm Nalgene syringe filter. Immediately after the bacterial inoculation, group 1 animals were subcutaneously (sc) injected with 0.05M Tris.HCl (no antibiotic) and groups 2 to 5 were given compound X sc at 0.8, 4, 20, and 100 mg/kg, respectively. Group 6 animals received erythromycin sc at 10 mg/kg. These injections were repeated once at 4 hours after the inoculation for the respective groups. The injection volume at each time was 10 ml per kilogram of body weight. The 50% protective dose (PD50) is calculated on the basis of the number of mice surviving 7 days after inoculation.

[5] = system: Streptococcus pyogenes (ATCC 8668); experiment: as above; format: in vivo, Streptococcus pyogenes; female CD-1 mice; conditions: 0.08 mg/kg sc, repeated at 4 hours, 7 days

CC[C@H](C)[C@H](N)C(=O)NS(=O)(=O)OC[C@H]1O[C@@H](CCn2nnc(-c3ccc(Oc4ccccc4)cc3)n2)[C@H](O)[C@@H]1O [Compound X, [S-(R*,R*)]-3,6-anhydro-1,2-dideoxy-1-[5-(4-phenoxyphenyl)-2H-tetrazol-2-yl]-D-allo-heptitol 7-(2-amino-3-methyl-1-oxopentyl)sulfamate]
MIC (B. subtilis ATCC 6633): 10 mg/L (≈ 16.9 µM)
MIC (C. albicans ATCC 10231): > 500 mg/L
MIC (E. faecalis ATCC 33011): 300 mg/L (≈ 508 µM)
MIC (E. faecium ATCC 6569): 10 mg/L (≈ 16.9 µM)
MIC (H. influenza ATCC 49247): 100 mg/L (≈ 169 µM)
MIC (K. pneumonia ATCC 4352): 50 mg/L (≈ 84.7 µM)
MIC [1]: 25 mg/L (≈ 42.3 µM)
MIC (S. aureus ATCC 14154): 25 mg/L (≈ 42.3 µM)
MIC (S. aureus ATCC 6538P): 10 mg/L (≈ 16.9 µM)
MIC [2]: 2 mg/L (≈ 3.39 µM)
MIC (S. pneumonia ATCC 49619): 25 mg/L (≈ 42.3 µM)
MIC (S. pyogenes ATCC 8668): 0.5 mg/L (≈ 0.847 µM)
MIC [3]: 5 mg/L (≈ 8.47 µM)
Protective % ([4]; 4 mg/kg sc): 0%
Number of Alive ([4]; 4 mg/kg sc): 0
Protective % ([4]; 20 mg/kg sc): 40%
Number of Alive ([4]; 20 mg/kg sc): 2
Protective % ([4]; 100 mg/kg sc): 100%
Number of Alive ([4]; 100 mg/kg sc): 5
ED50 ([4]; Streptococcus pyogenes, ATCC8668, 168 h, sc, mice surviving 7 days after inoculation, wild type, read-out: PD50 (50% protective dose)): 21.1 mg/kg
Protective % [5]: 0%
Number of Alive ([5]; of 5 mice): 0
